The values below come from patent publication US11708352B2, “Anti-cancer compounds” (THE REGENTS OF THE UNIVERSITY OF CALIFORNIA, priority 2015, dated 2023).

As a reminder, the IC50 is the concentration at which inhibition is half-maximal.

Each structure is given as a SMILES string.

For one test, the target named is T1, PARP1 (Homo sapiens, UniProt P09874).
T1 construct: purchased Trevigen 4677-096-K
Nature of the test: PARP enzymatic activity inhibition (Trevigen HT Universal PARP Assay Kit). It counts as biochemical. The protocol:
PARP Enzymatic Activity Inhibition: Determination of IC50 Values for Selected Compounds (Data in FIG. 1)
The half maximal inhibitory concentration (IC50) with respect to PARP inhibition was determined for each test compound by using Trevigen's HT Universal PARP Assay Kit, according to the manufacturer's protocol (Cat #4677-096-K, Gaithersburg, Md.). This assay measures the incorporation of biotinylated poly(ADP-ribose) onto histone proteins in a 96-well strip well format. This assay is ideal for the determination of IC50 values of known or suspected PARP inhibitors. Briefly, stock solutions of each test compound were prepared in DMSO. Histone strip wells were incubated for 30 minutes at room temperature with 50 μl/well of 1×PARP Buffer to rehydrate the histones. Serial dilutions of either test compound were added to appropriate wells. Diluted PARP enzyme (0.5 Unit/well) was then added to the wells containing compounds, and incubated for 10 minutes at room temperature. Subsequently, 25 μl of 1×PARP Cocktail, containing activated DNA, was distributed into each well. Three types of control wells were also analyzed; i. A negative control without PARP was prepared to determine background absorbance. ii. An activity control for PARP Inhibitor Study: 0.5 Unit/well PARP-HSA without inhibitors. These wells provided the 100% activity reference point. iii. And a PARP Standard Curve: Serial dilution of the PARP-HAS standard were prepared in cold microtubes with 1×PARP Buffer such that the total activity is 1 Unit/25 μl, 0.5 Units/25 μl, 0.25 Units/25 μl, 0.1 Units/25 μl, 0.05 Units/25 μl, 0.025 Units/25 and 0.01 Units/25 μl. 25 μl of each standard was added to triplicate wells. Following a 60 minutes incubation at room temperature, the strip wells were washed twice with 1×PBS+0.1% Triton X-100, and twice with 1×PBS. For activity detection, 50 μl per well of diluted Strep-HRP was added, and then incubated at room temperature for 60 minutes. Subsequently, 50 μl per well of pre-warmed TACS-Sapphire™ colorimetric substrate was added followed by a 15 minutes incubation, in the dark, at room temperature. The reactions were then stopped by adding 50 μl per well of 0.2M HCl or 5% Phosphoric Acid and read the absorbance at 450 nm.
The IC50 values were determined by performing non-linear regression analysis fitting velocities and the logarithm of inhibitor concentrations to a sigmoidal dose response with a variable slope model using the GraphPad Prism 6.0 software.

The target in a further test is ABL1 (Homo sapiens, UniProt P00519). Nature of the test: ABL kinase assay (Z'-LYTE biochemical kinase profiling). The note with it: ATP 10 μM final. The protocol: ABL Kinase Assays (Data in FIG. 1)
The direct inhibitory effect of the test compounds on the ABL kinases activity was assessed using the Z′-LYTE biochemical kinase profiling assays (SelectScreen Kinase Profiling assays, Life Technologies). The Z′-LYTE biochemical assay employs a fluorescence-based, coupled-enzyme format and is based on the differential sensitivity of phosphorylated and non-phosphorylated peptides to proteolytic cleavage. The peptide substrate is labeled with two fluorophores (one at each end) that make up a FRET pair. In the primary reaction, the kinase transfers the gamma-phosphate of ATP to a single tyrosine, serine or threonine residue in a synthetic FRET-peptide. In the secondary reaction, a site-specific protease recognizes and cleaves non-phosphorylated FRET-peptides. Phosphorylation of FRET-peptides suppresses cleavage by the Development Reagent. Cleavage disrupts FRET between the donor and acceptor fluorophores on the FRET-peptide, whereas uncleaved, phosphorylated FRET-peptides maintain FRET. The extent of phosphorylation of the FRET-peptide can be calculated from the Emission Ratio between cleaved and uncleaved FRET-peptides. The Emission Ratio will remain low if the FRET-peptide is phosphorylated (i.e., no kinase inhibition) and will be high if the FRET-peptide is non-phosphorylated (i.e., kinase inhibition).
Using the above described assay, The Test Compounds were screened in 1% DMSO (final) in the well. 10 point titrations, 3-fold serial dilutions were conducted. Briefly, in a black 384-well plate serial dilutions of test compound or 100 nL 100× were mixed with kinase buffer peptide/Kinase Mixture and ATP Solution (10 μM final). After one hour Kinase Reaction incubation at room temperature, the development Reagent Solution was added. Subsequently, the fluorescence signals were measured using a fluorescence plate reader. Data were analyzed and the IC50 were calculated with XLfit graphing software using the sigmoidal dose-response model.

The next test concerns bovine brain tubulin. Nature of the test: Tubulin polymerization assay (Cytoskeleton kit BK011P). The format is biochemical. Particulars: % Inhibition versus control; compound concentration of 4 μM. From the text: Tubulin Polymerization Assay (Data in FIG. 1)
The high-throughput screening-tubulin polymerization assay kit (Cytoskeleton, Cat. #BK011P) is an economical one step procedure for determining the effects of drugs or proteins on tubulin polymerization. Polymerization is followed by fluorescence enhancement due to the incorporation of a fluorescent reporter into microtubules as polymerization occurs. The standard assay tubulin generates a polymerization curve representing the three phases of microtubule formation, namely nucleation, growth, and steady state equilibrium. Compounds that interact with tubulin will often alter one or more of the characteristic phases of polymerization. For example, the anti-mitotic drug paclitaxel eliminates the nucleation phase and enhances the Vmax of the growth phase. Similarly, the microtubule destabilizing drug, vinblastine (also antimitotic) causes a decrease in Vmax and a reduction in final polymer mass. Thus, one application of this assay is the identification of novel anti-mitotics.
The direct effects of the test compounds on tubulin polymerization were investigated using the abovementioned Tubulin polymerization assay kit (Cytoskeleton, Cat. #BK011P), as indicated by the manufacturer protocol. Briefly, bovine brain tubulin (400 μg/sample) in the presence of either 0.5% DMSO treated (control), 4 μM test compounds, 3 μM paclitaxel (Cytoskeleton), or 3 μM vinblastine (Cytoskeleton) was incubated in PEM buffer [80 mm PIPES, 1 mm EGTA, 1 mm MgCl2 (pH 6.8)] containing 1.0 mm GTP (G-PEM) and 15% glycerol, at 37 C. All samples (wells) contained 15% glycerol. The degree of polymerization over time was measured in a spectrophotometer (Biotek synergy HT plate reader) at 350 nm. All time points were plotted and analyzed using GraphPad Prism 6.0 software.
DMSO control was set as 0% inhibition. Positive values depict the percentage of decrease in Vmax and final polymer mass, as compared to control. Negative values are inversely correlated to degree of nucleation phase elimination and the percentage of increase of the Vmax, as compared to control.

A further test deals with A549. Nature of the test: Cell viability assay in solid tumor cell lines (Cell-Titer Glo), A549. It counts as cell-based. Particulars: Homo sapiens, 72 hours. On the procedure:
(§1) Cell Viability Assay in Solid Tumors Cell Lines (Data in FIG. 2)
(§2) Human cancer cell lines (lung, ovarian, breast pancreatic and mesothelioma) were purchased from the ATCC. The cell lines were cultured in RPMI 1640 (Life Technologies, Carlsbad, Calif.) supplemented with 10% fetal bovine serum (FBS) and antibiotics. […] At the end of treatment, cell proliferation was determined by an intracellular adenosine triphosphate monitoring system (Cell-Titer Glo-Promega).
(§3) Inhibitory activity was evaluated comparing treated versus control data using the GraphPad Prism 6.0 software.

A further test relates to OVCAR8. Nature of the test: Cell viability assay in solid tumor cell lines (Cell-Titer Glo), OVCAR8. It counts as cell-based. Particulars: Homo sapiens, OVCAR-8, 72 hours. On the procedure:
as §1, §2, §3

ABL1, sequence (P00519 whole entry): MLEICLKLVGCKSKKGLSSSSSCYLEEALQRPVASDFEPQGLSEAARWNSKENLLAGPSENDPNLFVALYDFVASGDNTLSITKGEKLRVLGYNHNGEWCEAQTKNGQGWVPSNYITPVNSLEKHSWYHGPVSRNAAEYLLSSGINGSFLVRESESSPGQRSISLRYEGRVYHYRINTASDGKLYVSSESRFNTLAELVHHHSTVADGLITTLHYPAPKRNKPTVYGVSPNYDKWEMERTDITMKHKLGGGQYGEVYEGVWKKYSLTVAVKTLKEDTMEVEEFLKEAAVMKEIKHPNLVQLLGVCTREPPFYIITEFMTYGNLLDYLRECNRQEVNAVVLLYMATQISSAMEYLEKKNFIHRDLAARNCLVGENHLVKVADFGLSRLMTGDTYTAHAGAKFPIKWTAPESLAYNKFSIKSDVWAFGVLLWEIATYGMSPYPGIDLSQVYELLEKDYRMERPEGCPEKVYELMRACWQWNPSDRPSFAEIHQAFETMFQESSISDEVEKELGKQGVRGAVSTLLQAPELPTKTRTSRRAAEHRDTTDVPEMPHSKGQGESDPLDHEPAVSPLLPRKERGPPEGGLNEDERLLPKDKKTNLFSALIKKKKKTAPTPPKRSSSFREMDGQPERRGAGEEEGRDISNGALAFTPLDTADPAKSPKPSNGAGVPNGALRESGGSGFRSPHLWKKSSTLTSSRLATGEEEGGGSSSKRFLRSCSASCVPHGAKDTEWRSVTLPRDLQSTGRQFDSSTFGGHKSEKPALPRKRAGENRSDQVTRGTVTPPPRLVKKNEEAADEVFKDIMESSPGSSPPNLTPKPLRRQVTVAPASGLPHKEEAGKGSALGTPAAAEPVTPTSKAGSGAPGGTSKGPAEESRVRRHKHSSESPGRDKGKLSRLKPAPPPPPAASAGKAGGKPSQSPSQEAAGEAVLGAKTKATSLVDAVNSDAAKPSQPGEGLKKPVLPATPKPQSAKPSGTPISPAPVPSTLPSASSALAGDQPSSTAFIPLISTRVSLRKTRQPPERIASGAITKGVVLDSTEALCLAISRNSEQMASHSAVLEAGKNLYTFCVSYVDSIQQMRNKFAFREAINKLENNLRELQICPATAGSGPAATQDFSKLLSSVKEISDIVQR
T1 sequence (P09874 whole entry): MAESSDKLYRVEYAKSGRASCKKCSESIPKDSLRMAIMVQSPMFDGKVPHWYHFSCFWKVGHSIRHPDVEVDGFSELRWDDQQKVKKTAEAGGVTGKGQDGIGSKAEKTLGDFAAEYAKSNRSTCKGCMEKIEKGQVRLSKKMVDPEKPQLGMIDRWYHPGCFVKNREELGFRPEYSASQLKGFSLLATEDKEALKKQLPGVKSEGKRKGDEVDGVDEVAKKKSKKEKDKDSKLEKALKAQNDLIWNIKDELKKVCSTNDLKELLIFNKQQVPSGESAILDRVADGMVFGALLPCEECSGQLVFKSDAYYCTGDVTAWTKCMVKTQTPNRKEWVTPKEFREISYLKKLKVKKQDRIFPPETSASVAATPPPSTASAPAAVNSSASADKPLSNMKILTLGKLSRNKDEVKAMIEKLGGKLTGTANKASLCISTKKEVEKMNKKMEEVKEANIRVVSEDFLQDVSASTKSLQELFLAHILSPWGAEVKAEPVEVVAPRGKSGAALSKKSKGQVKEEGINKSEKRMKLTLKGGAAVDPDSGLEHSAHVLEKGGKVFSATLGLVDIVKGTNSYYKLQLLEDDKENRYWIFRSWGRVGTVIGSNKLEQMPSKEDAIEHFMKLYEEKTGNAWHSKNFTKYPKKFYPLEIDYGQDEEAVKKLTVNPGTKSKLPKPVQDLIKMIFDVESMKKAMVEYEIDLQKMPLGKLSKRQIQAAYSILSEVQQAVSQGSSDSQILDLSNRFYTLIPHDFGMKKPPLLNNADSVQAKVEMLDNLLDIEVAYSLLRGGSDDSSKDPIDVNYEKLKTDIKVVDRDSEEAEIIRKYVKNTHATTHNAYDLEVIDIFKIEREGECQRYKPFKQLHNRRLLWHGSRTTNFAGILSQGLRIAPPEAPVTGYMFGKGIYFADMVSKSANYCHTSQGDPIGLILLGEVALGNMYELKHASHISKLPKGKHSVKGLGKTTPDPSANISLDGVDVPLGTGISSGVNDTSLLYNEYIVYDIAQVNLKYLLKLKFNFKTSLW

Consider `COC(=O)Nc1nc2cc(-c3n[nH]c(=O)c4ccccc34)ccc2[nH]1` [Compound No. 2, Methyl (5-(4-oxo-3,4-dihydrophthalazin-1-yl)-1H-benzimidazol-2-yl)carbamate], for which the IC50 on PARP1 is more than 10000 nM; against ABL1, 500 to 1000 nM; with A549, 1000 to 5000 nM; in the test with OVCAR8, 1000 to 5000 nM. The “Tubulin Polymerization Inhibition” value in the test on bovine brain tubulin was “X (X = (% Inhibition versus control) <20%. Results with a compound concentration of 4 μM)”.
`COCCOC(=O)Nc1nc2cc(-c3n[nH]c(=O)c4ccccc34)ccc2[nH]1` [Compound No. 3, 2-Methoxyethyl (5-(4-oxo-3,4-dihydrophthalazin-1-yl)-1H-benzimidazol-2-yl)carbamate]: the IC50 on PARP1 was in the range of 5000 to 10000 nM; at ABL1, 500 to 1000 nM; in the test with A549, 1000 to 5000 nM; in the test with OVCAR8, 1000 to 5000 nM. Besides, the “Tubulin Polymerization Inhibition” value in the test with bovine brain tubulin is “Y (Y = (% Inhibition versus control) ≤20%. Results with a compound concentration of 4 μM)”.
In the case of `CCOC(=O)Nc1nc2cc(-c3n[nH]c(=O)c4ccc(F)cc34)ccc2[nH]1` [Compound No. 9, Ethyl (5-(7-fluoro-4-oxo-3,4-dihydrophthalazin-1-yl)-1H-benzimidazol-2-yl)carbamate], the IC50 on PARP1 was more than 10000 nM; on ABL1 it was less than 500 nM; with A549, less than 500 nM; with OVCAR8 it was less than 500 nM.
On to `CCOC(=O)Nc1nc2cc(-c3n[nH]c(=O)c4cc(F)c(F)cc34)ccc2[nH]1` [Compound No. 11, Ethyl (5-(6,7-difluoro-4-oxo-3,4-dihydrophthalazin-1-yl)-1H-benzimidazol-2-yl)carbamate], for which the IC50 on PARP1 is more than 10000 nM; against ABL1, less than 500 nM; with A549, less than 500 nM; in the test with OVCAR8, less than 500 nM.
Consider `CCOC(=O)Nc1nc2cc(-c3n[nH]c(=O)c4cccc(Cl)c34)ccc2[nH]1` [Compound No. 20, Ethyl (5-(8-chloro-4-oxo-3,4-dihydrophthalazin-1-yl)-1H-benzimidazol-2-yl)carbamate], for which the IC50 on PARP1 is more than 10000 nM; against ABL1, 500 to 1000 nM; in the test on A549, 1000 to 5000 nM; in the test on OVCAR8, 500 to 1000 nM.
On to `CCOC(=O)Nc1nc2cc(-c3n[nH]c(=O)c4ccc(Cl)cc34)ccc2[nH]1` [Compound No. 21, Ethyl (5-(7-chloro-4-oxo-3,4-dihydrophthalazin-1-yl)-1H-benzimidazol-2-yl)carbamate], for which the IC50 against PARP1 is more than 10000 nM; at ABL1, less than 500 nM; in the test on A549, 500 to 1000 nM; in the test on OVCAR8, 500 to 1000 nM.
For the compound `CCOC(=O)Nc1nc2cc(-c3n[nH]c(=O)c4cc(Cl)c(Cl)cc34)ccc2[nH]1` [Compound No. 23, Ethyl (5-(6,7-dichloro-4-oxo-3,4-dihydrophthalazin-1-yl)-1H-benzimidazol-2-yl)carbamate], the IC50 on PARP1 was 1000 to 5000 nM; against ABL1, less than 500 nM; in the test with A549 it was 500 to 1000 nM; with OVCAR8, less than 500 nM.
In the case of `CCNC(=O)Nc1nc2cc(-c3n[nH]c(=O)c4ccccc34)ccc2[nH]1` [Compound No. 80, 1-Ethyl-3-(5-(4-oxo-3,4-dihydrophthalazin-1-yl)-1H-benzimidazol-2-yl)urea], the IC50 at PARP1 was more than 10000 nM; at ABL1, less than 500 nM; in the test on A549 it was 1000 to 5000 nM; in the test on OVCAR8, 1000 to 5000 nM.
On to `CCCC(=O)Nc1nc2cc(-c3n[nH]c(=O)c4ccccc34)ccc2[nH]1` [Compound No. 86, N-(5-(4-oxo-3,4-dihydrophthalazin-1-yl)-1H-benzimidazol-2-yl)butyramide], for which the IC50 on PARP1 was 5000 to 10000 nM; against ABL1, less than 500 nM; in the test on A549, less than 500 nM; in the test on OVCAR8, less than 500 nM.
With `CCOC(=O)Nc1nc2cc(-c3n[nH]c(=O)c4ccccc34)cc(Cl)c2[nH]1` [Compound No. 135, Ethyl (7-chloro-5-(4-oxo-3,4-dihydrophthalazin-1-yl)-1H-benzimidazol-2-yl)carbamate], the IC50 against PARP1 was 1000 to 5000 nM; on ABL1, less than 500 nM; in the test on A549, less than 500 nM; with OVCAR8, less than 500 nM.
For `CCCC(=O)Nc1nc2cc(-c3n[nH]c(=O)c4ccccc34)cc(Cl)c2[nH]1` [Compound No. 139, N-(7-chloro-5-(4-oxo-3,4-dihydrophthalazin-1-yl)-1H-benzimidazol-2-yl)butyramide], the IC50 on ABL1, in the test with A549 and in the test with OVCAR8 was less than 500 nM throughout.
With `CCOC(=O)Nc1nc2cc(-c3n[nH]c(=O)c4ccccc34)cc(Br)c2[nH]1` [Compound No. 140, Ethyl (7-bromo-5-(4-oxo-3,4-dihydrophthalazin-1-yl)-1H-benzimidazol-2-yl)carbamate], the IC50 is 5000 to 10000 nM against PARP1, less than 500 nM on ABL1, less than 500 nM in the test on A549 and less than 500 nM in the test on OVCAR8.
Take `CCOC(=O)Nc1nc2cc(-c3n[nH]c(=O)c4ccccc34)cc(C)c2[nH]1` [Compound No. 145, Ethyl (7-methyl-5-(4-oxo-3,4-dihydrophthalazin-1-yl)-1H-benzimidazol-2-yl)carbamate]: the IC50 against PARP1 is more than 10000 nM; against ABL1, 5000 to 10000 nM; in the test with A549, less than 500 nM; with OVCAR8, less than 500 nM.
